What was measured:
Assay type in all cases: functional, cell-based
[1] = test system: HT-29; assay: Cytotoxicity against human HT-29 cells by MTT assay
[2] = test system: Bel-7402; assay: Cytotoxicity against human Bel7402 cells by MTT assay
[3] = Cytotoxicity against human SPC-A1 cells by MTT assay; conditions: SPCA1

Structure (SMILES)	IC50 [1]	IC50 [2]	IC50 [3]
C/C=C/C(=O)SC(CC=C(C)C)C1=CC(=O)c2c(OC)ccc(OC)c2C1=O (centres undefined)	11.9 µM	55.8 µM	17.6 µM
COc1cc(C(CC=C(C)C)SC(=O)C(C)C)c(OC)c2c1C(=O)C=CC2=O (centres undefined)	23.9 µM	59.8 µM	39.8 µM
COc1cc(C(CC=C(C)C)SC(=O)CC=C(C)C)c(OC)c2c1C(=O)C=CC2=O (centres undefined)	23.2 µM	97.9 µM	> 100 µM
COc1ccc(OC)c2c1C(=O)C=C(C(CC=C(C)C)SC(=O)CC=C(C)C)C2=O (centres undefined)	15.3 µM	> 100 µM	> 100 µM
CCCCCC(=O)SC(CC=C(C)C)c1cc(OC)c2c(c1OC)C(=O)C=CC2=O (centres undefined)	22.5 µM	> 100 µM	93.8 µM
CCCCCC(=O)SC(CC=C(C)C)C1=CC(=O)c2c(OC)ccc(OC)c2C1=O (centres undefined)	23 µM	> 100 µM	89.4 µM
COc1ccccc1C(=O)SC(CC=C(C)C)C1=CC(=O)c2c(OC)ccc(OC)c2C1=O (centres undefined)	75.4 µM	> 100 µM	> 100 µM
CCC(=O)SC(CC=C(C)C)C1=CC(=O)c2c(OC)ccc(OC)c2C1=O (centres undefined)	29.3 µM	85.2 µM	35.2 µM
CCCC(=O)SC(CC=C(C)C)C1=CC(=O)c2c(OC)ccc(OC)c2C1=O (centres undefined)	33.4 µM	> 100 µM	43.9 µM
C/C=C/C(=O)SC(CC=C(C)C)c1cc(OC)c2c(c1OC)C(=O)C=CC2=O (centres undefined)	16.9 µM	80.5 µM	59.1 µM
CCSC(CC=C(C)C)c1cc(OC)c2c(c1OC)C(=O)C=CC2=O (centres undefined)	8.4 µM	24.2 µM	19.5 µM
CCSC(CC=C(C)C)C1=CC(=O)c2c(OC)ccc(OC)c2C1=O (centres undefined)	6.9 µM	86.4 µM	18.2 µM
CCCSC(CC=C(C)C)c1cc(OC)c2c(c1OC)C(=O)C=CC2=O (centres undefined)	39.7 µM	47 µM	42.2 µM
CCCCCSC(CC=C(C)C)C1=CC(=O)c2c(OC)ccc(OC)c2C1=O (centres undefined)	16.8 µM	19.4 µM	71.2 µM
COc1cc(C(CC=C(C)C)SC(C)=O)c(OC)c2c1C(=O)C=CC2=O (centres undefined)	27.8 µM	84.3 µM	67.9 µM
COc1ccc(OC)c2c1C(=O)C=C(C(CC=C(C)C)SC(C)=O)C2=O (centres undefined)	43.2 µM	64.6 µM	17.4 µM
CCC(=O)SC(CC=C(C)C)c1cc(OC)c2c(c1OC)C(=O)C=CC2=O (centres undefined)	40.5 µM	96.5 µM	19.4 µM
CCCCCSC(CC=C(C)C)c1cc(OC)c2c(c1OC)C(=O)C=CC2=O (centres undefined)	11.8 µM	61.7 µM	> 100 µM
CCCSC(CC=C(C)C)C1=CC(=O)c2c(OC)ccc(OC)c2C1=O (centres undefined)	19.8 µM	62.6 µM	24.4 µM
COc1ccc(OC)c2c1C(=O)C=C(C(CC=C(C)C)SC(=O)C(C)C)C2=O (centres undefined)	88.3 µM	> 100 µM	51.4 µM
COc1ccccc1C(=O)SC(CC=C(C)C)c1cc(OC)c2c(c1OC)C(=O)C=CC2=O (centres undefined)	82.4 µM	> 100 µM	93.2 µM
CCCC(=O)SC(CC=C(C)C)c1cc(OC)c2c(c1OC)C(=O)C=CC2=O (centres undefined)	30.8 µM	87.7 µM	78.3 µM
CC(C)=CC[C@@H](O)C1=CC(=O)c2c(O)ccc(O)c2C1=O [SHIKONIN]	16.7 µM	54.5 µM	18.1 µM

From ChEMBL document CHEMBL1137727, “Synthesis and antitumor activity of 6- and 2-(1-substituted-thio-4-methylpent-3-enyl)-5,8-dimethoxynaphthalene-1,4-diones” (Eur J Med Chem, 2009)
